# Assay results reported in ChEMBL document CHEMBL4330144, “A mitochondria-targeted organic arsenical accelerates mitochondrial metabolic disorder and function injury” (Bioorg Med Chem, 2019).
# System: NB-4
# Assay: Induction of mitochondrial membrane potential loss in human NB4 cells by JC1 staining based flow cytometry (reference value: 27.7%)
# Type: functional
smiles,measurement,value
N#CC(C#N)=NNc1cccc(Cl)c1 [CARBONYL CYANIDE M-CHLOROPHENYLHYDRAZONE],Activity,93%
